Data published in US20240174634A1, “Aldehyde Dehydrogenase Inhibitors and Their Therapeutic Use” (priority 2020, published 2024).

Molecular target: T1, ALDH1A3 (Homo sapiens, UniProt P47895)
T1 sequence (P47895 1-512): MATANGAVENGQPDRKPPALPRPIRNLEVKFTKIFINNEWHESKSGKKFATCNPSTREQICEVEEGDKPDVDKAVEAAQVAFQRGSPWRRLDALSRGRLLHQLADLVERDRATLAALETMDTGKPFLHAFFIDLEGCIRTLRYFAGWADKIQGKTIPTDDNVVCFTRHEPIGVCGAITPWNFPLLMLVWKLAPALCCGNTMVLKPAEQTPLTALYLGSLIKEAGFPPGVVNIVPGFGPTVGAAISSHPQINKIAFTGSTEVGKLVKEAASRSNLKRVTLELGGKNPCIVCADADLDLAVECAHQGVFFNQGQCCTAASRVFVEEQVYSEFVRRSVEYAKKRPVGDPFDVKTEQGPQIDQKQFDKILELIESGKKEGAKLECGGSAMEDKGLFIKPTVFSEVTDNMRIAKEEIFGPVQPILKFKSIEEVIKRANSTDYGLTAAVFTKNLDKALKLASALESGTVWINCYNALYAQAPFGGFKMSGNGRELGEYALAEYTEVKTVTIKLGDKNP
Experiment: Primary biochemical assay, NAD(P)H-Glo Detection System
Parameters: His-tag; made in house; host or cells: E. coli Rosetta (DE3)
Conditions: 30 min pre-incubation, propionaldehyde and NAD at Km
Method in brief: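 Recombinant full-length His-tagged human enzymes expressed in E. coli were pre-incubated 30 min at room temperature with compound (10-point, 3-fold series; top 20 μM for ALDH1A3, 250 μM for ALDH1A1/1A2). Propionaldehyde and NAD were then added at Km; NADH was read by NAD(P)H-Glo luminescence. Buffer: Tris (pH 7.6 for 1A1/1A2, 9.0 for 1A3), 1 mM TCEP, 0.01% Tween-20.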

`COc1cccc(C2CCCN2CCOc2ccc3c(c2)CCC(=O)N3)c1` (stereo not shown) [ALDHI-2034, 6-[2-[2-(3-methoxyphenyl)pyrrolidin-1-yl]ethoxy]-3,4-dihydro-1H-quinolin-2-one] and `CCn1cc(C2CCCN2CCOc2ccc3c(c2)CCC(=O)N3)cn1` (stereo not shown) [ALDHI-2016, 6-[2-[2-(1-ethylpyrazol-4-yl)pyrrolidin-1-yl]ethoxy]-3,4-dihydro-1H-quinolin-2-one] fall in the same range of IC50: 100 to 1000 nM for the first, 100 to 1000 nM for the second.

First: O=C1CCc2cc(NC(=O)c3sccc3-c3cccc(F)c3)ccc2N1 [ALDHI-1022, 3-(3-fluorophenyl)-N-(2-oxo-3,4-dihydro-1H-quinolin-6-yl)thiophene-2-carboxamide]
Second: O=C1CCc2cc(NC(=O)c3scnc3-c3cccc(F)c3)ccc2N1 [ALDHI-1003, 4-(3-fluorophenyl)-N-(2-oxo-3,4-dihydro-1H-quinolin-6-yl)thiazole-5-carboxamide]
The IC50 of the first is higher: 100 to 1000 nM for the first, less than 100 nM for the second. The second is the more potent here.

First: CC1Oc2cc(OCCN3CCCC3c3cccc(F)c3)ccc2NC1=O (stereo not shown) [ALDHI-2044, 7-[2-[2-(3-fluorophenyl)pyrrolidin-1-yl]ethoxy]-2-methyl-4H-1,4-benzoxazin-3-one]
Second: O=C1CCc2cc(OCCn3ccnc3-c3ccccc3)ccc2N1 [ALDHI-2041, 6-[2-(2-phenylimidazol-1-yl)ethoxy]-3,4-dihydro-1H-quinolin-2-one]
The IC50 of the first is lower: less than 100 nM for the first, 100 to 1000 nM for the second.

Work on `O=C1CCc2cc(NC(=O)c3sc(N4CCOCC4)nc3-c3cccc(F)c3)ccc2N1` [ALDHI-1001, 4-(3-fluorophenyl)-2-morpholino-N-(2-oxo-3,4-dihydro-1H-quinolin-6-yl)thiazole-5-carboxamide] yielded an IC50 of less than 100 nM.
